According to patent US8895597B2, “Combination of local temozolomide with local BCNU” (priority 2010, dated 2014):

Columns and labels:
F98 glioma = experiment: Efficacy of local TMZ, local BCNU and XRT, intracranial F98 glioma (resistant to alkylating agents); type: in vivo, F344 rats; settings: without XRT
9L gliosarcoma = experiment: Efficacy of local TMZ, local BCNU and XRT, intracranial 9L gliosarcoma (second experiment); type: in vivo, F344 rats; settings: without XRT
Excerpt: TMZ, provided by the National Institute of Health/National Cancer Institute, (Bethesda, Md.), was incorporated into a polyanhydride CPP:SA 20:80 polymer at concentrations of 50% (w/w) by methods as described by Tamargo, et al., Cancer Res. 53(2):329-333 (1993). BCNU was purchased from the Johns Hopkins Hospital pharmacy (Bristol Meyers; Princeton, N.J.) and polymers were made at concentrations of 3.8% (w/w) in a similar fashion. The polymers were then pressed into discs weighing approximately 10 mg. Blank polymers (100% CPP:SA) were made in an analogous manner. In vitro release kinetics, biodistribution studies, and studies to determine maximally tolerated dose of BCNU and TMZ polymers as described by Brem, et al., Cancer Chemother. Pharmacol. 60(5):643-650 (2007); Tamargo, et al., Cancer Res. 53(2):329-333 (1993); and Grossman, et al., J. Neurosurg. 76(4):640-647 (1992). Polymers were stored at −20° C. until use.
The 9L gliosarcoma was obtained from Dr. M. Barker at the University of California-San Francisco Brain Tumor Research Center (San Francisco, Calif.). […]
To determine the efficacy of the combination of locally delivered TMZ with locally delivered BCNU and XRT, tumor-bearing rats were randomized into groups of sixteen for treatment on post-operative Day 5. […] Any animals appearing moribund were sacrificed and date of death recorded. […]

Cn1nnc2c(C(N)=O)ncn2c1=O [50 mg/kg oral TMZ, temozolomide]
Long-term survivors (%) (F98 glioma; alive at Day 120): 0% | Median survival (days) (F98 glioma; range in brackets): 15 (13-18) days | Long-term survivors (%) (9L gliosarcoma; alive at Day 120): 0% | Median survival (days) (9L gliosarcoma; range in brackets): 24 (14-33) days
